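48-hour exposure; five concentrations; linearly interpolated endpoints. The concentration for 50% growth inhibition is given as GI50.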 Active and inactive are the calls of the source. Cut-off read from the data, not from the text of the source: active = GI50 up to about 1.1 µM and inactive = higher.
Experiments:
Assay in all cases: inhibition of tumour cell growth, NCI panel, 48 h
SR = test system: SR
HT-29 = test system: HT-29
LOX IMVI = test system: LOX IMVI
NCI-H460 = test system: NCI-H460
SK-MEL-5 = test system: SK-MEL-5
SK-MEL-28 = test system: SK-MEL-28
CAKI-1 = test system: CAKI-1
KM12 = test system: KM12
T47D = test system: T47D
K562 = test system: K562
MCF7 = test system: MCF7
OVCAR-4 = test system: OVCAR-4
SNB-75 = test system: SNB-75
EKVX = test system: EKVX
MOLT-4 = test system: MOLT-4
SN12C = test system: SN12C
Malme-3M = test system: Malme-3M
HCT-116 = test system: HCT-116
SNB-19 = test system: SNB-19
COLO 205 = test system: COLO 205

Compound | GI50 (SR) | GI50 (HT-29) | GI50 (LOX IMVI) | GI50 (NCI-H460) | GI50 (SK-MEL-5) | GI50 (SK-MEL-28) | GI50 (CAKI-1) | GI50 (KM12) | GI50 (T47D) | GI50 (K562) | GI50 (MCF7) | GI50 (OVCAR-4) | GI50 (SNB-75) | GI50 (EKVX) | GI50 (MOLT-4) | GI50 (SN12C) | GI50 (Malme-3M) | GI50 (HCT-116) | GI50 (SNB-19) | GI50 (COLO 205)
NS(=O)(=O)c1cc(C(=O)O)c(O)c2ccccc12 | > 100 µM (inactive) | > 100 µM (inactive) | > 100 µM (inactive) | > 100 µM (inactive) | > 100 µM (inactive) | > 100 µM (inactive) | > 100 µM (inactive) | > 100 µM (inactive) | > 100 µM (inactive) | > 100 µM (inactive) | > 100 µM (inactive) | > 100 µM (inactive) | 82.6 µM (inactive) | > 100 µM (inactive) | > 100 µM (inactive) | > 100 µM (inactive) | 92 µM (inactive) | > 100 µM (inactive) | > 100 µM (inactive) | > 100 µM (inactive)
O=C(O)CCCCn1cnc2c(S)ncnc21 | > 100 µM (inactive) | > 100 µM (inactive) | > 100 µM (inactive) | > 100 µM (inactive) | > 100 µM (inactive) | > 100 µM (inactive) | > 100 µM (inactive) | > 100 µM (inactive) | > 100 µM (inactive) | > 100 µM (inactive) | > 100 µM (inactive) | > 100 µM (inactive) | > 100 µM (inactive) | > 100 µM (inactive) | > 100 µM (inactive) | > 100 µM (inactive) | > 100 µM (inactive) | > 100 µM (inactive) | > 100 µM (inactive) | > 100 µM (inactive)
Cc1ccccc1OC(C)C(=O)NN1C(=O)CSC1c1ccccc1 (centres undefined) | 10.2 µM (inactive) | 93.1 µM (inactive) | > 100 µM (inactive) | 93.5 µM (inactive) | 32.2 µM (inactive) | > 100 µM (inactive) | > 100 µM (inactive) | 93.5 µM (inactive) | 34.7 µM (inactive) | 14.7 µM (inactive) | 38.5 µM (inactive) | > 100 µM (inactive) | 60.7 µM (inactive) | 83.2 µM (inactive) | < 0.01 µM (active) | > 100 µM (inactive) | > 100 µM (inactive) | 53.1 µM (inactive) | 67.6 µM (inactive) | > 100 µM (inactive)
CCc1nc2cc(/N=N/c3c(O)ccc4ccccc34)ccc2[nH]1 | 2.14 µM (inactive) | 19.4 µM (inactive) | 10.1 µM (inactive) | 16.1 µM (inactive) | 18.5 µM (inactive) | 20.3 µM (inactive) | 22.4 µM (inactive) | 11.2 µM (inactive) | 24.3 µM (inactive) | 8.59 µM (inactive) | 18.4 µM (inactive) | 14 µM (inactive) | 20.6 µM (inactive) | 19.1 µM (inactive) | 7.98 µM (inactive) | 20.5 µM (inactive) | 18.3 µM (inactive) | 15.5 µM (inactive) | 31.3 µM (inactive) | 21.2 µM (inactive)
COc1ccc(-c2c(=O)[nH]n3c(=S)[nH]c(-c4ccccc4)nc23)cc1OC | 6.9 µM (inactive) | 21.6 µM (inactive) | 17.2 µM (inactive) | 29 µM (inactive) | 16.4 µM (inactive) | 21.3 µM (inactive) | 24.3 µM (inactive) | 17.7 µM (inactive) | 20.2 µM (inactive) | 12.9 µM (inactive) | 15.8 µM (inactive) | 21 µM (inactive) | 24.5 µM (inactive) | 22.5 µM (inactive) | 8.51 µM (inactive) | 16.2 µM (inactive) | 19.2 µM (inactive) | 16.6 µM (inactive) | 15 µM (inactive) | 16.8 µM (inactive)
Cc1nc(-c2cc3ccccc3oc2=O)cs1 | 59 µM (inactive) | > 100 µM (inactive) | > 100 µM (inactive) | > 100 µM (inactive) | > 100 µM (inactive) | > 100 µM (inactive) | > 100 µM (inactive) | > 100 µM (inactive) | > 100 µM (inactive) | > 100 µM (inactive) | > 100 µM (inactive) | > 100 µM (inactive) | < 0.01 µM (active) | 34.2 µM (inactive) | > 100 µM (inactive) | > 100 µM (inactive) | 7.23 µM (inactive) | 96.2 µM (inactive) | 40.6 µM (inactive) | > 100 µM (inactive)
COc1cc(-c2[o+]c3cc(O)cc(OC4OC(CO)C(O)C(O)C4O)c3cc2OC2OC(CO)C(O)C(O)C2O)cc(OC)c1O (centres undefined) | > 100 µM (inactive) | > 100 µM (inactive) | > 100 µM (inactive) | > 100 µM (inactive) | > 100 µM (inactive) | > 100 µM (inactive) | > 100 µM (inactive) | > 100 µM (inactive) | > 100 µM (inactive) | > 100 µM (inactive) | > 100 µM (inactive) | > 100 µM (inactive) | > 100 µM (inactive) | > 100 µM (inactive) | > 100 µM (inactive) | > 100 µM (inactive) | > 100 µM (inactive) | > 100 µM (inactive) | > 100 µM (inactive) | > 100 µM (inactive)
CC(=O)NCCC1CN(C(=O)/C=C\I)c2ccccc21 (centres undefined) | > 33.7 µM (inactive) | 11.7 µM (inactive) | 3.08 µM (inactive) | 9.75 µM (inactive) | 3.48 µM (inactive) | 16 µM (inactive) | 1.73 µM (inactive) | 5.7 µM (inactive) | 18.2 µM (inactive) | 3.76 µM (inactive) | 2.56 µM (inactive) | 18.9 µM (inactive) | 17.8 µM (inactive) | 17.3 µM (inactive) | 5.53 µM (inactive) | 4.97 µM (inactive) | 15.2 µM (inactive) | 14.6 µM (inactive) | 20.4 µM (inactive) | 11.7 µM (inactive)
N#Cc1nc(/C=C/c2ccccc2)oc1N | 0.252 µM (active) | > 100 µM (inactive) | > 100 µM (inactive) | > 100 µM (inactive) | > 100 µM (inactive) | > 100 µM (inactive) | > 100 µM (inactive) | > 100 µM (inactive) | > 100 µM (inactive) | > 100 µM (inactive) | > 100 µM (inactive) | 20.7 µM (inactive) | > 100 µM (inactive) | > 100 µM (inactive) | 13.7 µM (inactive) | > 100 µM (inactive) | > 100 µM (inactive) | > 100 µM (inactive) | > 100 µM (inactive) | > 100 µM (inactive)
c1ccc(SCCc2ccncc2)cc1 | 19.3 µM (inactive) | > 100 µM (inactive) | > 100 µM (inactive) | > 100 µM (inactive) | 35.8 µM (inactive) | > 100 µM (inactive) | 53 µM (inactive) | 78.7 µM (inactive) | 52.1 µM (inactive) | 49.5 µM (inactive) | 91.4 µM (inactive) | 98.2 µM (inactive) | > 100 µM (inactive) | 46 µM (inactive) | 17.7 µM (inactive) | > 100 µM (inactive) | > 100 µM (inactive) | > 100 µM (inactive) | > 100 µM (inactive) | > 100 µM (inactive)
CCCCOCCOC1=CC(=O)c2c(O)ccc(O)c2C1=O | 1.24 µM (inactive) | 1.67 µM (inactive) | 1.73 µM (inactive) | 1.82 µM (inactive) | 0.216 µM (active) | 1.62 µM (inactive) | 1.78 µM (inactive) | 1.75 µM (inactive) | 2.06 µM (inactive) | 2 µM (inactive) | 1.31 µM (inactive) | 1.92 µM (inactive) | 1.57 µM (inactive) | 1.69 µM (inactive) | 1.28 µM (inactive) | 1.66 µM (inactive) | 0.24 µM (active) | 1.49 µM (inactive) | 1.75 µM (inactive) | 1.14 µM (inactive)
O=[N+]([O-])c1ccc(C(Nc2ccccc2)P(c2ccccc2)c2ccccc2)cc1 (centres undefined) | > 100 µM (inactive) | > 100 µM (inactive) | > 100 µM (inactive) | > 100 µM (inactive) | > 100 µM (inactive) | > 100 µM (inactive) | > 100 µM (inactive) | > 100 µM (inactive) | > 100 µM (inactive) | 22.5 µM (inactive) | > 100 µM (inactive) | > 100 µM (inactive) | > 100 µM (inactive) | > 100 µM (inactive) | 24.1 µM (inactive) | > 100 µM (inactive) | > 100 µM (inactive) | 8.81 µM (inactive) | > 100 µM (inactive) | > 100 µM (inactive)
COc1ccc2c(c1)C(=O)[C@@](Nc1ccc(C=O)cc1)(OC)[C@@](OC)(c1ccc([N+](=O)[O-])cc1)O2 | > 10 µM (inactive) | > 10 µM (inactive) | > 10 µM (inactive) | > 10 µM (inactive) | > 10 µM (inactive) | > 10 µM (inactive) | > 10 µM (inactive) | > 10 µM (inactive) | 5.96 µM (inactive) | > 10 µM (inactive) | > 10 µM (inactive) | > 10 µM (inactive) | 3.91 µM (inactive) | > 10 µM (inactive) | > 10 µM (inactive) | > 10 µM (inactive) | > 10 µM (inactive) | > 10 µM (inactive) | > 10 µM (inactive) | > 10 µM (inactive)
O=c1[nH]c(=S)c2cc3c(=S)[nH]c(=O)n(CCO)c3nc2n1CCO | > 100 µM (inactive) |  | > 100 µM (inactive) | > 100 µM (inactive) | > 100 µM (inactive) | > 100 µM (inactive) | > 100 µM (inactive) | > 100 µM (inactive) | > 100 µM (inactive) | > 100 µM (inactive) | > 100 µM (inactive) | > 100 µM (inactive) | > 100 µM (inactive) | > 100 µM (inactive) | > 100 µM (inactive) | > 100 µM (inactive) | > 100 µM (inactive) | > 100 µM (inactive) | > 100 µM (inactive) | > 100 µM (inactive)
